Test results taken from patent publication US20110054034A1, “METHODS OF USING […] AS ANTIMICROBIAL AGENTS” (priority 2008, published 2011).

Key:
Assay type in all cases: in vivo
[1] = system: gram+bacterial infection on the skin; experiment: Treating a topical infection in a human; settings: 2.5% cream applied twice daily, after about 4 days
Excerpt: A 50 kg person is diagnosed by a dermatologist with a gram+bacterial infection on the skin of their left foot. They prescribed a 2.5% cream of 5-bromo-2-[[(2E)-3-(2-naphthalenyl)-1-oxo-2-butenyl]amino]benzoic acid which they applied twice daily.

badly infected wound = experiment: Treating a systemic infection in a dog (infected wound); settings: 15 kg dog, 300 mg twice a day mixed in food
Procedure: A 15 kg dog with a badly infected wound is given 300 mg twice a day mixed in his food of trans-3-(naphth-2-yl)-but-2-enoic acid-N-(2-carboxyphenyl)amide. After 2 days the wound looks better and after 5 days it is almost healed.

S. aureus = experiment: Treating a systemic infection in a human; settings: two 300 mg tablets three daily
Procedure: A 70 kg person has a 102° fever and a bad cough. An internist diagnoses their problem as a systemic gram+bacterial infection of S. aureus. They prescribe trans-3-(naphth-2-yl)but-2-enoic acid-N-(2-carboxyphenyl)amide with the directions to take two 300 mg tablets three daily which the patient does.

| SMILES | appearance of the skin [1] | gram+bacterial infection on the skin of the foot [1] | appearance of the infected wound (badly infected wound; after 2 days) | healing of the infected wound (badly infected wound; after 5 days) | cough (S. aureus; after five days) | temperature (S. aureus; after five days) | fever (S. aureus; after two days) |
| --- | --- | --- | --- | --- | --- | --- | --- |
| C/C(=C\C(=O)Nc1ccc(Br)cc1C(=O)O)c1ccc2ccccc2c1 [5-bromo-2-[[(2E)-3-(2-naphthalenyl)-1-oxo-2-butenyl]amino]benzoic acid] | appears normal | the infection was gone | – | – | – | – | – |
| C/C(=C\C(=O)Nc1ccccc1C(=O)O)c1ccc2ccccc2c1 [trans-3-(naphth-2-yl)-but-2-enoic acid-N-(2-carboxy-phenyl)-amide] | – | – | looks better | almost healed | cough is gone | temperature is normal | the fever comes down |
